Experimental findings from US12637424B2, “Pharmaceutical salt of an arylpyrrole derivative” (SENTINEL ONCOLOGY LIMITED, priority 2020, dated 2026) are described below.

Assay [1] addresses T1, panel of ninety-seven kinases (Homo sapiens, UniProt P31749).
T1 construct: purchased DiscoverX; host or cells: E. coli (BL21-derived, T7 phage display) or HEK-293
As to the kind of experiment: DiscoverX KinomeScreen competition binding assay (kinase selectivity panel). Conditions: AKT1; screened at 3000 nM. On the procedure:
(§1) This has been investigated by testing atropisomer A-2 for off-target activity against a panel of ninety-seven kinases distributed across the kinome at a concentration of 3 μM using the DiscoverX KinomeScreen assay. The DiscoverX KinomeScreen assay is a site-directed competition binding assay which measures the binding affinity of a compound to a kinase, by use of a solid supported control compound which can bind or capture the kinases in solution. In the absence of a kinase-inhibitor test compound, all of the kinase will bind to the solid support. If a kinase-inhibitor test compound is added to the assay mix, the amount of kinase binding to the solid support will be reduced, the extent of reduction being dependent on the potency of the test compound as a kinase inhibitor. […] For most assays, kinase-tagged T7 phage strains were grown in parallel in 24-well blocks in an E. coli host derived from the BL21 strain. E. coli were grown to log-phase and infected with T7 phage from a frozen stock (multiplicity of infection=0.4) and incubated with shaking at 32° C. until lysis (90-150 minutes). The lysates were centrifuged (6,000×g) and filtered (0.2 μm) to remove cell debris. The remaining kinases were produced in HEK-293 cells and subsequently tagged with DNA for qPCR detection. Streptavidin-coated magnetic beads were treated with biotinylated small molecule ligands for 30 minutes at room temperature to generate affinity resins for kinase assays. The liganded beads were blocked with excess biotin and washed with blocking buffer (SeaBlock (Pierce), 1% BSA, 0.05% Tween 20, 1 mM DTT) to remove unbound ligand and to reduce non-specific phage binding. […] Test compounds were prepared as 40× stocks in 100% DMSO and directly diluted into the assay. All reactions were performed in polypropylene 384-well plates in a final volume of 0.02 ml. […] The beads were then re-suspended in elution buffer (1×PBS, 0.05% Tween 20, 0.5 μM non-biotinylated affinity ligand) and incubated at room temperature with shaking for 30 minutes. The kinase concentration in the eluates was measured by qPCR. Compounds that bind the kinase active site and directly (sterically) or indirectly (allosterically) prevent kinase binding to the immobilized ligand, will reduce the amount of kinase captured on the solid support. […] The strength of binding of the test molecule to the kinase can be expressed as the percent control (% Ctrl) The compound(s) were screened at 3000 nM concentration, and results for primary screen binding interactions are reported as ‘% Ctrl’, where lower numbers indicate stronger hits in the matrix on the following page(s). [formula] • negative control=DMSO (100% Ctrl) • positive control=control compound (0% Ctrl)

For assay [2], the target named is T2, panel of ninety-seven kinases (Homo sapiens, UniProt Q00526).
T2 construct: purchased DiscoverX; host or cells: E. coli (BL21-derived, T7 phage display) or HEK-293
The description is as above. Conditions: CDK3; screened at 3000 nM. On the procedure: as §1

The target in assay [3] is T3, panel of ninety-seven kinases (Homo sapiens, UniProt P27448).
T3 construct: purchased DiscoverX; host or cells: E. coli (BL21-derived, T7 phage display) or HEK-293
Described as above. Conditions: MARK3; screened at 3000 nM. Here is the method:
as §1

Assay [4] has as its target T4, panel of ninety-seven kinases (Homo sapiens, UniProt P16234).
T4 construct: purchased DiscoverX; host or cells: E. coli (BL21-derived, T7 phage display) or HEK-293
The description is as above. Conditions: PDGFRA; screened at 3000 nM. On the procedure:
as §1

Assay [5] concerns the target T5, panel of ninety-seven kinases (Homo sapiens, UniProt Q15831).
T5 construct: purchased DiscoverX; host or cells: E. coli (BL21-derived, T7 phage display) or HEK-293
Described as above. Conditions: STK11; screened at 3000 nM. Here is the method: as §1

Assay [6] addresses T6, panel of ninety-seven kinases (Homo sapiens, UniProt P45984).
T6 construct: purchased DiscoverX; host or cells: E. coli (BL21-derived, T7 phage display) or HEK-293
The description is as above. Conditions: MAPK9; screened at 3000 nM. Here is the method: as §1

The target in assay [7] is T7, panel of ninety-seven kinases (Homo sapiens, UniProt P36507).
T7 construct: purchased DiscoverX; host or cells: E. coli (BL21-derived, T7 phage display) or HEK-293
The assay is described as above. Conditions: MAP2K2; screened at 3000 nM. Here is the method: as §1

Assay [8] addresses T8, panel of ninety-seven kinases (Homo sapiens, UniProt P45983).
T8 construct: purchased DiscoverX; host or cells: E. coli (BL21-derived, T7 phage display) or HEK-293
The assay is described as above. The conditions noted are these: MAPK8; screened at 3000 nM. Here is the method:
as §1

The target in assay [9] is T9, panel of ninety-seven kinases (Homo sapiens, UniProt Q15303).
T9 construct: purchased DiscoverX; host or cells: E. coli (BL21-derived, T7 phage display) or HEK-293
The assay is described as above. The conditions noted are these: ERBB4; screened at 3000 nM. Here is the method:
as §1

Assay [10] deals with T10, panel of ninety-seven kinases (Homo sapiens, UniProt Q8NI60).
T10 construct: purchased DiscoverX; host or cells: E. coli (BL21-derived, T7 phage display) or HEK-293
The description is as above. Conditions: CABC1; screened at 3000 nM. On the procedure: as §1

The target of assay [11] is T11, panel of ninety-seven kinases (Homo sapiens, UniProt P35968).
T11 construct: purchased DiscoverX; host or cells: E. coli (BL21-derived, T7 phage display) or HEK-293
The description is as above. The conditions noted are these: KDR; screened at 3000 nM. Here is the method: as §1

In assay [12] the target is T12, panel of ninety-seven kinases (Homo sapiens, UniProt Q9H4B4).
T12 construct: purchased DiscoverX; host or cells: E. coli (BL21-derived, T7 phage display) or HEK-293
The assay is described as above. Conditions: PLK3; screened at 3000 nM. Here is the method:
as §1

The target of assay [13] is T13, panel of ninety-seven kinases (Homo sapiens, UniProt Q13177).
T13 construct: purchased DiscoverX; host or cells: E. coli (BL21-derived, T7 phage display) or HEK-293
The description is as above. Conditions: PAK2; screened at 3000 nM. Here is the method:
as §1

Assay [14] has as its target T14, panel of ninety-seven kinases (Homo sapiens, UniProt O75116).
T14 construct: purchased DiscoverX; host or cells: E. coli (BL21-derived, T7 phage display) or HEK-293
The assay is described as above. Conditions: ROCK2; screened at 3000 nM. On the procedure: as §1

Assay [15] deals with T15, panel of ninety-seven kinases (Homo sapiens, UniProt Q9UPE1).
T15 construct: purchased DiscoverX; host or cells: E. coli (BL21-derived, T7 phage display) or HEK-293
The description is as above. Conditions: SRPK3; screened at 3000 nM. Here is the method: as §1

The target of assay [16] is T16, panel of ninety-seven kinases (Homo sapiens, UniProt Q02763).
T16 construct: purchased DiscoverX; host or cells: E. coli (BL21-derived, T7 phage display) or HEK-293
The description is as above. The conditions noted are these: TEK; screened at 3000 nM. On the procedure: as §1

Assay [17] has as its target T17, panel of ninety-seven kinases (Homo sapiens, UniProt Q02156).
T17 construct: purchased DiscoverX; host or cells: E. coli (BL21-derived, T7 phage display) or HEK-293
The assay is described as above. Conditions: PRKCE; screened at 3000 nM. Here is the method: as §1

Assay [18] addresses T18, panel of ninety-seven kinases (Homo sapiens, UniProt Q9HBH9).
T18 construct: purchased DiscoverX; host or cells: E. coli (BL21-derived, T7 phage display) or HEK-293
Described as above. The conditions noted are these: MKNK2; screened at 3000 nM. Here is the method: as §1

Assay [19] has as its target T19, panel of ninety-seven kinases (Homo sapiens, UniProt P49137).
T19 construct: purchased DiscoverX; host or cells: E. coli (BL21-derived, T7 phage display) or HEK-293
The assay is described as above. The conditions noted are these: MAPKAPK2; screened at 3000 nM. Here is the method:
as §1

Assay [20] concerns the target T20, panel of ninety-seven kinases (Homo sapiens, UniProt P51812).
T20 construct: purchased DiscoverX; host or cells: E. coli (BL21-derived, T7 phage display) or HEK-293
Described as above. The conditions noted are these: RPS6KA3; screened at 3000 nM. On the procedure:
as §1

The target in a further assay is T21, PLK1 (catalytic domain) (Homo sapiens, UniProt P53350).
T21 construct: purchased DiscoverX; host or cells: E. coli (BL21-derived, T7 phage display) or HEK-293
The experiment in a line: DiscoverX KinomeScreen competition binding assay. Here is the method: as §1

Another assay addresses T22, PLK4 (catalytic domain) (Homo sapiens, UniProt O00444).
T22 construct: purchased DiscoverX; host or cells: E. coli (BL21-derived, T7 phage display) or HEK-293
As to the kind of experiment: DiscoverX KinomeScreen competition binding assay. On the procedure:
as §1

Where [21] appears, read: 3 μM (3000 nM), lower = stronger binding, read-out: % Control.

T21 sequence (P53350 53-305 limits assumed): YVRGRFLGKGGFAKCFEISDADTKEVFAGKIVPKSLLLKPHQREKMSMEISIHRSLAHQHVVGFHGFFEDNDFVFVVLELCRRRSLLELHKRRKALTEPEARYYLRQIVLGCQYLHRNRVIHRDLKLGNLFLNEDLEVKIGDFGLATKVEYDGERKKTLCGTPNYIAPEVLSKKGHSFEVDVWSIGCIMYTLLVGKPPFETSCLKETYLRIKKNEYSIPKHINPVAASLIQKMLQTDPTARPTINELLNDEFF
T22 sequence (O00444 12-265 limits assumed): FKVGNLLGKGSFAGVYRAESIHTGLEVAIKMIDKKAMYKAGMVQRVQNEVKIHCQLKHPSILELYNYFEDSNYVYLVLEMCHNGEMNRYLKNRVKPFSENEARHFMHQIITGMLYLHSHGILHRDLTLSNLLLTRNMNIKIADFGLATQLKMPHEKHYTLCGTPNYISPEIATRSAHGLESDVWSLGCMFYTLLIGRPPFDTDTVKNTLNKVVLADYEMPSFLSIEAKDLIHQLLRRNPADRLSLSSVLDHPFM
T4 sequence (P16234 24-1089): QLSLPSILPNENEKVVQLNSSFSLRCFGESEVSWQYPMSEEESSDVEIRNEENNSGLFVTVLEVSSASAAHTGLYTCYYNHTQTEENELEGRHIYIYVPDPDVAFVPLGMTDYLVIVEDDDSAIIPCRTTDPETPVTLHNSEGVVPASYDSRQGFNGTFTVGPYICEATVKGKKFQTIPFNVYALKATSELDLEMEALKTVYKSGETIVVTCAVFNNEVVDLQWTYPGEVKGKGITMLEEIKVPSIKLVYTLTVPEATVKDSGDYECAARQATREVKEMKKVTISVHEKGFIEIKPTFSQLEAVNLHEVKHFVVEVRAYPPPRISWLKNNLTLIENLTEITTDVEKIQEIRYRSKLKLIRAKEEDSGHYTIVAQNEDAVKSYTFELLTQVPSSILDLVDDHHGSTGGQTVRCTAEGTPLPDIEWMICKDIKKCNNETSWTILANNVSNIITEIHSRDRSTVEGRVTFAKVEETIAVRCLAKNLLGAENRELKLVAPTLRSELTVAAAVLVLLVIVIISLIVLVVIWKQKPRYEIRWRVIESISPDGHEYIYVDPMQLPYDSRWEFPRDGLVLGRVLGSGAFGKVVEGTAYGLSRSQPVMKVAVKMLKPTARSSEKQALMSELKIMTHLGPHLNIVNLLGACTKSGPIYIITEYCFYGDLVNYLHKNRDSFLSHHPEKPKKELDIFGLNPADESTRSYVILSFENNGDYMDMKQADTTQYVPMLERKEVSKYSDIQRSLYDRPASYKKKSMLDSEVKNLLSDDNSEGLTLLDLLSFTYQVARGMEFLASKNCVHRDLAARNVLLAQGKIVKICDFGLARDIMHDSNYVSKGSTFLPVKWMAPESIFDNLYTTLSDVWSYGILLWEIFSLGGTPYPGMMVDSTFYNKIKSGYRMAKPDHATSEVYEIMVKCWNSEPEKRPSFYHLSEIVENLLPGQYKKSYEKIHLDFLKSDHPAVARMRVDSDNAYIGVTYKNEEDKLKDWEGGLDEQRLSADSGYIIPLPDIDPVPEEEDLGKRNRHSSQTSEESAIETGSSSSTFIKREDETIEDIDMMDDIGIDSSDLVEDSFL
T16 sequence (Q02763 23-1124): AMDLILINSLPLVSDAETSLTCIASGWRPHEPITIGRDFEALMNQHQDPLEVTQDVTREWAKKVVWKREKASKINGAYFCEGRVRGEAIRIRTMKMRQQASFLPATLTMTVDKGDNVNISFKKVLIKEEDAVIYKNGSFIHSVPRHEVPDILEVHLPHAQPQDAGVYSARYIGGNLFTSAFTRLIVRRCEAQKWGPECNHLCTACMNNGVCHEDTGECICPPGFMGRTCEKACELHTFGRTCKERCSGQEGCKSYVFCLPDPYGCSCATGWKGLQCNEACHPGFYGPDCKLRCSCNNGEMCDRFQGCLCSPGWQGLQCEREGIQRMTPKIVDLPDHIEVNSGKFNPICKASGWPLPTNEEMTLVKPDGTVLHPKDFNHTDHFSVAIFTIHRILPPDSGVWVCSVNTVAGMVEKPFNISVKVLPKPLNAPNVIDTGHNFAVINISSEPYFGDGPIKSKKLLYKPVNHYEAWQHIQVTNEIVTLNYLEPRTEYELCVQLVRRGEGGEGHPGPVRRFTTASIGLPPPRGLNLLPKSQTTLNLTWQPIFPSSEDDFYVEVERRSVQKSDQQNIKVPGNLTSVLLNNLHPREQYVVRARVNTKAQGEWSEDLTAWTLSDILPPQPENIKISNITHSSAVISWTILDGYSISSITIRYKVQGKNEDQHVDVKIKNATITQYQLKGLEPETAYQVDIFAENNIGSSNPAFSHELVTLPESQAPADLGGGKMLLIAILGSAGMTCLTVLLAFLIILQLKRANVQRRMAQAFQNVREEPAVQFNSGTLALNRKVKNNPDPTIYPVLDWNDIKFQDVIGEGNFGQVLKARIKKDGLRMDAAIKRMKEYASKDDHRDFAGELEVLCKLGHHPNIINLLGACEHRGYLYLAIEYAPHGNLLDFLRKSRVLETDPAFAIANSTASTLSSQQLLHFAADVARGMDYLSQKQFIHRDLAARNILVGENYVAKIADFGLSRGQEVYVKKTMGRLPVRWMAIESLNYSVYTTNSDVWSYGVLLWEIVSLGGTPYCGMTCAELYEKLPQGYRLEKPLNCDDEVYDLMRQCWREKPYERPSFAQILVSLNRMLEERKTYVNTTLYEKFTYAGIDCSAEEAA
T3 sequence (P27448 whole entry): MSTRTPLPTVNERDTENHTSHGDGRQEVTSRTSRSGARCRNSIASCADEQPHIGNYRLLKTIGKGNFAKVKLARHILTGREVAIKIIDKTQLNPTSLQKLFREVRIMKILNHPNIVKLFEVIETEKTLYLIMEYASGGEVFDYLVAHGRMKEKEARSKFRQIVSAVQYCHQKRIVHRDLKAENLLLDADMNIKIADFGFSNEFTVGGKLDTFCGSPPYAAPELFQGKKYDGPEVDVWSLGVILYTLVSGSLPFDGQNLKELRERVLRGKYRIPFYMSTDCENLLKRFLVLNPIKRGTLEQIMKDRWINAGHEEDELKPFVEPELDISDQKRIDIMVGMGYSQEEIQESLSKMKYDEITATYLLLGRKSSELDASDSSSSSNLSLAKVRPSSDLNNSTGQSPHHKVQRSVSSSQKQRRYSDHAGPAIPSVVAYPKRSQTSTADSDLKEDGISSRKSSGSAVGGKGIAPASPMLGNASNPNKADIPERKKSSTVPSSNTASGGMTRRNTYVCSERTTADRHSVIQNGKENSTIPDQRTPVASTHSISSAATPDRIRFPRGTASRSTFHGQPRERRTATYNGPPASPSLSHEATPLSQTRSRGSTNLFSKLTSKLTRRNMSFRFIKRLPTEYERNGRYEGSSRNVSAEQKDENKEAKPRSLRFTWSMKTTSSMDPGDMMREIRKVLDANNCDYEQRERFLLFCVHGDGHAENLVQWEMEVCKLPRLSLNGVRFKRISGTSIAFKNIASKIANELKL
T8 sequence (P45983 whole entry): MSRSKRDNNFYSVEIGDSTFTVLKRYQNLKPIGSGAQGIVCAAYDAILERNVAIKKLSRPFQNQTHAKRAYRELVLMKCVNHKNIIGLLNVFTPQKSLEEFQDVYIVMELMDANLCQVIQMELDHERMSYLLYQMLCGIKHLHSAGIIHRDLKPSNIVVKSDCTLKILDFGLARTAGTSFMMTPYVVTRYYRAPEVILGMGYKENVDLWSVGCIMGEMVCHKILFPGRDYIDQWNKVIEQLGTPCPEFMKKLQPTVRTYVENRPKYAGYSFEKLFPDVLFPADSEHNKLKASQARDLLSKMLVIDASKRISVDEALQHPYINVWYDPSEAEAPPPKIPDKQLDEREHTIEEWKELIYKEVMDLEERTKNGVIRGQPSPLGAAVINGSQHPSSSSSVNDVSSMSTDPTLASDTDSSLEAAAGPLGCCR
T20 sequence (P51812 whole entry): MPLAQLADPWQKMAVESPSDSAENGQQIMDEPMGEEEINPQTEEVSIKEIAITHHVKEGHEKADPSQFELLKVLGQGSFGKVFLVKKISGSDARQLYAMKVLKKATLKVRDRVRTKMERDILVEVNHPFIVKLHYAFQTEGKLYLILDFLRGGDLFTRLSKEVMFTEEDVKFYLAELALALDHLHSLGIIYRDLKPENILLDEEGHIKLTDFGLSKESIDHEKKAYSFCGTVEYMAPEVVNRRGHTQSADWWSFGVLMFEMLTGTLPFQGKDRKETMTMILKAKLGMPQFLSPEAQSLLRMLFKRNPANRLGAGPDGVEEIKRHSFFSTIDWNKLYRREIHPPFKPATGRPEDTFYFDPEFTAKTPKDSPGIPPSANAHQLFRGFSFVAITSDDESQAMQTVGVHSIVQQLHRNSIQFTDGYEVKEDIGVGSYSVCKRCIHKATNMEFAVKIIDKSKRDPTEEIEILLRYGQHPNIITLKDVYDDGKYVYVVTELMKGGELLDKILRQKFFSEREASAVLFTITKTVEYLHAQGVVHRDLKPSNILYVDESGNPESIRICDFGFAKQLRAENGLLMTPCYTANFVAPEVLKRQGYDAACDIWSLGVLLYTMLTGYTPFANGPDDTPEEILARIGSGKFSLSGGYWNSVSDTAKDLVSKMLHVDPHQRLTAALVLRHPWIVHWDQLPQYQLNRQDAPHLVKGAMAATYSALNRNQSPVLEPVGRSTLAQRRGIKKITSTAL
T7 sequence (P36507 whole entry): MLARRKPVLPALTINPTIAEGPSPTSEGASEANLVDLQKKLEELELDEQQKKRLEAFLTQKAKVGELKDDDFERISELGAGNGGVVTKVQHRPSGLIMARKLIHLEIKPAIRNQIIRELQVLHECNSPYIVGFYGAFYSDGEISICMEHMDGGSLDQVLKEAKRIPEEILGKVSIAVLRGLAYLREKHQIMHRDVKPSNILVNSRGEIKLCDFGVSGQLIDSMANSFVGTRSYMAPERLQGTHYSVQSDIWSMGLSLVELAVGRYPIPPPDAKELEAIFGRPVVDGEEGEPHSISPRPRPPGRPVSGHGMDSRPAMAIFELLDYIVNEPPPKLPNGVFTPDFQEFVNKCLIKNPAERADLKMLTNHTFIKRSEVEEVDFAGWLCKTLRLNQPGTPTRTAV

For `CN(C)CCNC(=O)c1ccc(-c2ccc(-c3ccc(Cl)cc3)n2-c2ccccc2C(F)(F)F)cc1` (single isomer, unassigned) [Atropisomer A-2], the “% Ctrl @ 3 μM” value in [1] came to 98 % Ctrl; in [2], 100 % Ctrl; in [3], 100 % Ctrl; in [4], 100 % Ctrl; in [5], 81 % Ctrl; in assay [6], 80 % Ctrl. In addition, the “% Ctrl @ 3 μM” value in [7] is 81 % Ctrl; in [8], 77 % Ctrl; in [9], 99 % Ctrl; in [10], 63 % Ctrl; in assay [11], 100 % Ctrl; in assay [12], 87 % Ctrl. The “% Ctrl @ 3 μM” value stood at 100 % Ctrl in assay [13]; 88 % Ctrl in assay [14]; 71 % Ctrl in assay [15]; 99 % Ctrl in assay [16]; 99 % Ctrl in assay [17]; 85 % Ctrl in [18]. Also, the “% Ctrl @ 3 μM” value is recorded as 75 % Ctrl in assay [19]; 100 % Ctrl in assay [20]; 97 % Ctrl at PLK1 (catalytic domain) (PLK1, screened at 3000 nM); 100 % Ctrl on PLK4 (catalytic domain) (PLK4, screened at 3000 nM). Also, the remaining binding at 3 µM at PLK1 (catalytic domain) (setting [21]) worked out at 97%; at PLK4 (catalytic domain) (setting [21]) it was 100%.
